# Measurements published in article PMC4669759 (Cell Death & Disease, 2015).
# What was measured:
# [1] = system: H929 cells; test: Cytochrome c release in H929 cells; type: cell-based, human; settings: intact H929 cells, within 4 h
# Experimental: (§1) Figure 4 Indole-2-carboxylic acids induce the hallmarks of apoptosis in MCL-1-dependent cancer cell line H929. (a) Digitonin-permeabilized H929 cells were treated with 10 μM BH3 peptides for 4 h, and intact H929 cells were incubated with increasing concentrations (0.1–10 μM) of A-1208746 for 4 h before assessing the levels of cytochrome c released into the cytosol. (b) H929 and RS4;11 cells were incubated with increasing concentrations of MCL-1 inhibitors or the BCL-2-selective inhibitor ABT-199 (venetoclax) for 48 h before determining cell viability. Cell killing IC50s are plotted with each value representing the mean of three separate experiments. […]
# (§2) H929 cells were cultured in RPMI 1640 (Invitrogen Corp., Grand Island, NY, USA) supplemented with 10% fetal bovine serum (Invitrogen), 1% sodium pyruvate, 25 mM HEPES, 4.5 g/l glucose, and 1% penicillin/streptomycin (Sigma) and maintained in a humidified chamber at 37 °C containing 5% CO2. […] Following treatment, the hallmarks of apoptosis (activation of caspase-3/-7, mitochondrial membrane depolarization, and phosphatidylserine externalization) were measured using the IntelliCyt (Albuquerque, NM, USA) MultiCyt 4-Plex Apoptosis Screening Kit according to the manufacturer's instructions and read by flow cytometry using a HTFC screening system (IntelliCyt). […] Data were expressed as the percentage of singlet cells. […]
# [2] = system: H929 cells; test: Cell viability, H929 cells; type: cell-based, human; settings: H929, 48 h
# Experimental: as §1, with “experiments. Error bars represent the S.E.M. (c) H929 cells were incubated with increasing concentrations of MCL-1 inhibitors in the presence or absence of the pan-caspase inhibitor QVD (100 μM) for 4 h before assessing caspase-3/-7 activation, mitochondrial membrane polarization, and the exposure of phosphatidylserine.” for “experiments.”
# (§3) Adherent cell lines were seeded at 50 000 cells per well in 96-well plates and treated for 48 h with compounds diluted in half-log steps starting at 30 μM and ending at 0.001 μM. […] Effects on proliferation and viability were determined using CellTiter-Glo reagent from Promega (Madison, WI, USA) according to the manufacturer's instructions. IC50 values were determined by non-linear regression analysis of the concentration response data.
# [3] = system: RS4;11 cell line; test: Cell viability, RS4;11 cells; type: cell-based; settings: RS4;11, 48 h
# Experimental: as §1, with “experiments. Error bars represent the S.E.M. (c) H929 cells were incubated with increasing concentrations of MCL-1 inhibitors in the presence or absence of the pan-caspase inhibitor QVD (100 μM) for 4 h before assessing caspase-3/-7 activation, mitochondrial membrane polarization, and the exposure of phosphatidylserine.” for “experiments.”
# as §3
# [4] = system: H929 cells; test: Hallmarks of apoptosis in H929 cells (caspase-3/-7, mitochondrial membrane depolarization, phosphatidylserine); type: cell-based, human; settings: H929, 4 h
# Experimental: as §1, §2
# [5] = system: Bak-/- Bax-/- MEFs; test: Cell viability, Bak-/- Bax-/- murine embryonic fibroblasts; type: cell-based; settings: 48 h
# Experimental: Supplementary Figure 4. […] Murine embryonic fibroblasts (MEFs) lacking Bak and Bax were treated with increasing concentrations of A-1155905, A-1208746, A-1210477, staurosporine or bortezomib for 48 h before assessing cell viability. Data represent the mean of triplicate experiments and error bars indicate the standard error of the mean.
# [6] = system: MCL-1(3B)–BIMS(2A)ΔC complexes; test: Live cell redistribution assay, eGFP-MCL-1(3B) and mCherry-BIMS(2A)ΔC, T-REx-293 cells; type: cell-based; settings: T-REx-293 cells expressing MCL-1(3B)
# Source text: To further rule out potential artifacts associated with lysate detergents that can influence interactions between BCL-2 family proteins,[47] we employed a recently described real-time imaging method to assess the effects on BCL-2 family complexes in live cells.[48] Briefly, interacting pairs of BCL-2 family proteins are expressed as fluorescent fusion proteins at stoichiometric levels from a bicistronic expression module integrated into a single site of the genome in T-REx-293 cells. Under basal conditions, both proteins localize primarily to the mitochondria, where the anti-apoptotic proteins (enhanced green fluorescent protein (eGFP)-BCL-2, eGFP-BCL-XL, or eGFP-MCL-1(3B)) sequester their pro-apoptotic counterparts (mCherry-BAD or mCherry-BIMS(2A)ΔC, the latter being a specific binder of MCL-1[48], [49]). Disruption of these complexes can be tracked by measuring the amount of mCherry-labeled BH3-only protein localized specifically to the mitochondria. […]
# (§4) Figure 3 A-1210477 inhibits MCL-1-BIM complexes in live cells. […] The decrease in amount of mCherry-BH3 protein localized to the mitochondria was quantified as a function of time as described in the Materials and Methods, normalized to DMSO control, and fitted to a single exponential decay. Each data point represents the mean change in intensity calculated from 10 fields of view, with error bars indicating the S.E.M. (b) T-REx-293 cells stably expressing eGFP-MCL-1(3B) and mCherry-BIMS(2A)ΔC were treated with 50 μM ABT-737 or increasing concentrations (1–25 μM) A-1210477 for 100 min. The decrease in amount of mCherry-BIMS(2A)ΔC localized to the mitochondria was quantified as in panel (a). (c) Representative fluorescence microscopic images of T-REx-293 cells stably expressing eGFP-BCL-2 family and interacting mCherry-BH3-only proteins before and after 300 min of treatment with 10 μM A-1210477 or (d) ABT-737. […]
# Experiments were carried out as detailed previously.[48] […] Therefore, the entire cell was identified with a single intensity threshold applied to the eGFP fluorescence, excluding areas identified as mitochondria. […]
# [7] = molecular target: T1, BCL-2–BAD complexes (Homo sapiens, UniProt P10415); test: Live cell redistribution assay, eGFP-BCL-2 and mCherry-BAD, T-REx-293 cells; type: cell-based; settings: 10 μM, 300 min
# T1 construct: expressed in transfected cells; host or cells: T-REx-293, bicistronic expression module integrated at a single genomic site
# T1 sequence (P10415 whole entry, one chain of several): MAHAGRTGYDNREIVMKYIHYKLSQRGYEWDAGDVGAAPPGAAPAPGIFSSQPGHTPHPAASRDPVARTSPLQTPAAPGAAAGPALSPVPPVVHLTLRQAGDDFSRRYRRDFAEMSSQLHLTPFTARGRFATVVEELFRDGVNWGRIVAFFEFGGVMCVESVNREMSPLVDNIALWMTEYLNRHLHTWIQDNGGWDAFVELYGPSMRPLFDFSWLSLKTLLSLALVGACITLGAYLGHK
# Source text: (§5) To further rule out potential artifacts associated with lysate detergents that can influence interactions between BCL-2 family proteins,[47] we employed a recently described real-time imaging method to assess the effects on BCL-2 family complexes in live cells.[48] Briefly, interacting pairs of BCL-2 family proteins are expressed as fluorescent fusion proteins at stoichiometric levels from a bicistronic expression module integrated into a single site of the genome in T-REx-293 cells. […]
# as §4
# [8] = molecular target: T2, BCL-XL–BAD complexes (Homo sapiens, UniProt Q07817); test: Live cell redistribution assay, eGFP-BCL-XL and mCherry-BAD, T-REx-293 cells; type: cell-based; settings: 10 μM, 300 min
# T2 construct: expressed in transfected cells; host or cells: T-REx-293, bicistronic expression module integrated at a single genomic site
# T2 sequence (Q07817 whole entry, one chain of several): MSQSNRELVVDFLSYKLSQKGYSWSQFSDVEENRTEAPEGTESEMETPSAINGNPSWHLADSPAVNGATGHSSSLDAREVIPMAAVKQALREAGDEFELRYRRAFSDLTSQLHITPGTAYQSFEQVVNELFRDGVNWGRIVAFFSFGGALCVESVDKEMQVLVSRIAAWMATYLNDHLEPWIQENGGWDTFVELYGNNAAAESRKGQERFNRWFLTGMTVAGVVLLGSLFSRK
# Source text: as §5, §4
# [9] = system: BxPC-3 cells; test: Navitoclax / A-1210477 combination cell viability, BxPC-3 cells; type: cell-based; settings: BxPC-3, up to 3–5 μM, 48 h
# Experimental: (§6) Figure 6 A-1210477 synergizes with navitoclax to kill hematological and solid tumor cell lines. BxPC-3, EJ-1, H23, and OPM-2 cells were treated with increasing concentrations of navitoclax in the presence or absence of increasing concentrations of A-1210477 for 48 h before assessing cell viability. All data points represent the means of triplicate experiments, with error bars indicating the S.E.M. TEXT PRINTED IN THE PICTURE: A-1210477 + navitoclax: Bliss sum (BxPC-3): 716; Bliss sum (EJ-1): 464; Bliss sum (H23): 76; Bliss sum (OPM-2): 946 DOUBTS OF THE COPYIST ABOUT THIS PICTURE: The Bliss sums apply to the combination of A-1210477 and navitoclax. The picture prints the two names separately (legend heading and axis title), not as one joined label.
# (§7) Adherent cell lines were seeded at 50 000 cells per well in 96-well plates and treated for 48 h with compounds diluted in half-log steps starting at 30 μM and ending at 0.001 μM. Multiple myeloma cell lines were seeded at 15 000–20 000 cells per well and treated similarly. Effects on proliferation and viability were determined using CellTiter-Glo reagent from Promega (Madison, WI, USA) according to the manufacturer's instructions. IC50 values were determined by non-linear regression analysis of the concentration response data.
# [10] = system: EJ-1 cells; test: Navitoclax / A-1210477 combination cell viability, EJ-1 cells; type: cell-based; settings: EJ-1, up to 3–5 μM, 48 h
# Experimental: as §6, §7
# [11] = system: H23 cells; test: Navitoclax / A-1210477 combination cell viability, H23 cells; type: cell-based, human; settings: H23, up to 3–5 μM, 48 h
# Experimental: as §6, §7
# [12] = system: OPM-2 cells; test: Navitoclax / A-1210477 combination cell viability, OPM-2 cells; type: cell-based; settings: OPM-2, up to 3–5 μM, 48 h
# Experimental: as §6, §7
smiles,measurement,setting,value
Cc1nn(C)c(COc2ccc(N3CCN(S(C)(=O)=O)CC3)cc2)c1-c1cccc2c(CCCOc3cccc4ccccc34)c(C(=O)O)n(CCN3CCOCC3)c12 [A-1208746],lowest concentration at which cytochrome c was observed in cytosolic fractions,[1],3 µM
same,cell killing IC50,[2],low-μM range
same,effect on cell viability,[3],no effect
same,"induction of hallmarks of apoptosis (mitochondrial membrane depolarization, caspase-3/-7 activation, phosphatidylserine externalization)",[4],induced the hallmarks of apoptosis
same,killing of Bak-/- Bax-/- MEFs,[5],do not Kill
"CN(C)CC[C@H](CSc1ccccc1)Nc1ccc(S(=O)(=O)NC(=O)c2ccc(N3CCN(Cc4ccccc4-c4ccc(Cl)cc4)CC3)cc2)cc1[N+](=O)[O-] [ABT-737, reference compound]",redistribution of mCherry-BIMS(2A)ΔC from mitochondria,[6],no effect
same,redistribution of mCherry-BAD associated with BCL-2,[7],induced the redistribution of mCherry-BAD
same,redistribution of mCherry-BAD associated with BCL-XL,[8],induced the redistribution of mCherry-BAD
"CC1(C)CCC(c2ccc(Cl)cc2)=C(CN2CCN(c3ccc(C(=O)NS(=O)(=O)c4ccc(N[C@H](CCN5CCOCC5)CSc5ccccc5)c(S(=O)(=O)C(F)(F)F)c4)cc3)CC2)C1 [navitoclax, reference compound]",single agent effect on cell viability,[9],little or no effect
same,single agent effect on cell viability,[10],little or no effect
same,single agent effect on cell viability,[11],little or no effect
same,single agent effect on cell viability,[12],little or no effect
